Measurements: US20080194653A1, “Therapeutic Agent For Solid Tumor” (KYOWA HAKKO KOGYO CO., LTD., priority 2005, published 2008)

Columns and labels:
[1] = tested on: human renal cancer 786-0 cells; assay: Cell growth inhibition test against renal cancer cells (XTT); format: cell-based; details: read-out: GI50 value (concentration of 50% growth inhibition)
Protocol: (§1) A549 cells (1000 cells/well), SK-OV-3 cells (2000 cells/well), or HCT 116 cells (1000 cells/well) were seeded in each well of 96-well plates (Nunc, catalog No. 167008), and cultured overnight. Test compounds diluted stepwise were added, and the cells were further cultured for 72 hours (final volume: 100 μL/well). Fifty μL XTT labeling mixture of Cell Proliferation Kit II (XTT) (Roche Diagnostics, catalog No. 1465015) was added to each well, and the plates were incubated at 37° C. After 1 to 3 hours, absorbance at 490 nm (reference wavelength: 655 nm) was measured with a plate reader (Molecular Device, SpectraMax 340PC^384). Growth ratios of the cells in the wells treated with the test compounds were calculated based on the growth ratio of the cells in the control well treated with solvent (dimethyl sulfoxide (DMSO)) for 72 hours, which was defined as 100%.
(§2) As cancer cell lines, human pancreatic cancer MIA PaCa-2 cells (JCRB No. 0070), human cervical cancer HeLa cells (ATCC No. CCL-2), human breast cancer MDA-MB-468 cells (ATCC No. HTB-132), human prostate cancer DU 145 cells (ATCC No. HTB-81), human skin cancer SK-MEL-28 cells (ATCC No. HTB-72), human head and neck cancer KB cells (JCRB No. 9027), human renal cancer 786-0 cells (ATCC No. CRL-1932), and human liver cancer Hep G2 cells (ATCC No. HB-8065) were used. The cells were cultured at 37° C. in a 5% carbon dioxide atmosphere (except for the human breast cancer MDA-MB-468 cells, which were cultured under the condition at 37° C.) by using the mediums mentioned below, respectively.
(§3) In the same manner as that in Test Example 1, the cells were seeded (500 to 4000 cells/well, respectively) in each well of 96-well plates (Nunc, catalog No. 167008), and growth ratios of the cells treated with test compounds were calculated. The measurement of absorbance was performed at 1.5 to 3 hours after the addition of the XTT labeling mixture.

[2] = tested on: human cervical cancer HeLa cells; assay: Cell growth inhibition test against cervical cancer cells (XTT); format: cell-based; details: read-out: GI50 value (concentration of 50% growth inhibition)
Protocol: as §1, §2, §3

[3] = tested on: human colon cancer HCT 116 cells; assay: Cell growth inhibition test against colon cancer cells (XTT); format: cell-based; details: read-out: GI50 value (concentration of 50% growth inhibition), 72 hours
Protocol: (§4) As cancer cell lines, human lung cancer A549 cells (ATCC No. CCL-185), human ovarian cancer SK-OV-3 cells (ATCC No. HTB-77), and human colon cancer HCT 116 cells (ATCC No. CCL-247) were used. For the culture of A549 cells, Nutrient Mixture F-12K medium (Invitrogen, catalog No. 21127-022) containing 10% fetal bovine serum (Invitrogen, catalog No. 10099-141), 100 units/mL penicillin (Invitrogen, catalog No. 15140-122), and 100 μg/mL streptomycin (Invitrogen, catalog No. 15140-122) was used. For the culture of SK-OV-3 cells and HCT 116 cells, McCoy's 5A medium (Invitrogen, catalog No. 16600-082) containing 10% fetal bovine serum (Invitrogen, catalog No. 10099-141), 100 units/mL penicillin (Invitrogen, catalog No. 15140-122), and 100 μg/mL streptomycin (Invitrogen, catalog No. 15140-122) was used. The cells were cultured at 37° C. in a 5% carbon dioxide atmosphere.
as §1

[4] = tested on: human lung cancer A549 cells; assay: Cell growth inhibition test against lung cancer cells (XTT); format: cell-based; details: read-out: GI50 value (concentration of 50% growth inhibition), 72 hours
Protocol: as §4, §1

[5] = tested on: human pancreatic cancer MIA PaCa-2 cells; assay: Cell growth inhibition test against pancreatic cancer cells (XTT); format: cell-based; details: read-out: GI50 value (concentration of 50% growth inhibition)
Protocol: as §1, §2, §3

[6] = tested on: human liver cancer Hep G2 cells; assay: Cell growth inhibition test against liver cancer cells (XTT); format: cell-based; details: HepG2, read-out: GI50 value (concentration of 50% growth inhibition)
Protocol: as §1, §2, §3

[7] = tested on: human skin cancer SK-MEL-28 cells; assay: Cell growth inhibition test against skin cancer cells (XTT); format: cell-based; details: read-out: GI50 value (concentration of 50% growth inhibition)
Protocol: as §1, §2, §3

[8] = tested on: human ovarian cancer SK-OV-3 cells; assay: Cell growth inhibition test against ovarian cancer cells (XTT); format: cell-based; details: read-out: GI50 value (concentration of 50% growth inhibition), 72 hours
Protocol: as §4, §1

[9] = tested on: human breast cancer MDA-MB-468 cells; assay: Cell growth inhibition test against breast cancer cells (XTT); format: cell-based; details: read-out: GI50 value (concentration of 50% growth inhibition)
Protocol: as §1, §2, §3

[10] = tested on: human head and neck cancer KB cells; assay: Cell growth inhibition test against head and neck cancer cells (XTT); format: cell-based; details: read-out: GI50 value (concentration of 50% growth inhibition)
Protocol: as §1, §2, §3

[11] = biological target: T1, recombinant human Eg5 motor domain protein (Homo sapiens, UniProt P52732); assay: Eg5 enzyme inhibition test (ATPase activity); format: biochemical; details: for IC50: 30° C., 30 minutes, absorbance at 360 nm, read-out: Inhibition ratios (IC50) on the ATPase activity of Eg5
T1 construct: A plasmid expressing the motor domain of human Eg5 was constructed; made in house; host or cells: Escherichia coli BL21 (DE3)
T1 sequence (P52732 18-359 limits assumed): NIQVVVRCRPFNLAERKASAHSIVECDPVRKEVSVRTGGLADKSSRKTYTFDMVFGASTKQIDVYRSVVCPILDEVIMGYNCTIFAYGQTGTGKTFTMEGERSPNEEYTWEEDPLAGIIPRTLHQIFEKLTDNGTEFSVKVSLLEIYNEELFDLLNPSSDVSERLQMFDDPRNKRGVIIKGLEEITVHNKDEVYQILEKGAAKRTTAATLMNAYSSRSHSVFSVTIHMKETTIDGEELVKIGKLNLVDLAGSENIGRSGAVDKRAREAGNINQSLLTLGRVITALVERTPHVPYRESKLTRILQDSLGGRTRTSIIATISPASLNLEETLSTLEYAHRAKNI
Protocol: A recombinant human Eg5 motor domain protein was prepared by referring to the literature [Biochemistry, Vol. 35, p. […] A plasmid expressing the motor domain of human Eg5 was constructed, and transformed into Escherichia coli BL21 (DE3). The transformant was cultured at 25° C., and when the OD600 reached 0.74, isopropyl-β-D-thiogalactoside was added at a final concentration of 0.5 mmol/L. The transformant was further cultured for 4 hours, and then the culture medium was centrifuged to collect the cells. The cells were suspended in a buffer and ultrasonicated, and then the sonicated solution was centrifuged to recover the supernatant. The supernatant was purified by cation exchange column chromatography to obtain a partially purified sample. Furthermore, the partially purified sample was purified by gel filtration column chromatography to obtain a finally purified sample.
Measurement of the ATPase activity of Eg5 was carried out by referring to the literatures [EMBO Journal, Vol. 13, p. […] Solution A was dispensed into each well of a 96-well plate as 45 μL portions. Solution B was used to serially dilute a test compound. The diluted test compound solutions in a volume of 30 μL were mixed with Solution A added beforehand in each well of the 96-well plate to start the enzymatic reaction. The enzymatic reaction was performed at 30° C. for 30 minutes. […] The relative activity was calculated to calculate IC50 value.

[12] = tested on: human prostate cancer DU 145 cells; assay: Cell growth inhibition test against prostate cancer cells (XTT); format: cell-based; details: read-out: GI50 value (concentration of 50% growth inhibition)
Protocol: as §1, §2, §3

SMILES	GI50 [1]	GI50 [2]	GI50 [3]	GI50 [4]	GI50 [5]	GI50 [6]	GI50 [7]	GI50 [8]	melting point	GI50 [9]	GI50 [10]	IC50 [11]	GI50 [12]	Inhibition of the ATPase activity of Eg5 (in words) [11]
CN(C)CCCS(=O)(=O)NCC1(c2ccccc2)SC(NC(=O)C(C)(C)C)=NN1C(=O)C(C)(C)C (single isomer, unassigned; (-)) [Compound n, (−)-N-[5-(3-Dimethylaminopropanesulfonylaminomethyl)-4-(2,2-dimethylpropionyl)-5-phenyl-4,5-dihydro-1,3,4-thiadiazol-2-yl]-2,2-dimethyl-propanamide]	< 10 µM	< 10 µM	< 0.1 µM	< 10 µM	< 10 µM	< 10 µM	< 10 µM	< 10 µM	92 to 95 °C	< 10 µM	< 10 µM	–	< 10 µM	–
CC(C)(C)C(=O)NC1=NN(C(=O)C(C)(C)C)C(CCCC(=O)NCCO)(c2ccccc2)S1 (single isomer, unassigned) [Compound o, 4-[3-(2,2-Dimethylpropionyl)-5-(2,2-dimethylpropionylamino)-2-phenyl-2,3-dihydro-1,3,4-thiadiazol-2-yl]-N-(2-hydroxyethyl)butanamide]	< 10 µM	< 10 µM	< 0.1 µM	< 10 µM	< 10 µM	< 10 µM	< 10 µM	< 10 µM	–	< 10 µM	< 10 µM	< 0.1 µM	< 10 µM	inhibited the ATPase activity of Eg5 in a concentration-dependent manner
CN(C)CCS(=O)(=O)NCC1(c2ccccc2)SC(NC(=O)C(C)(C)C)=NN1C(=O)C(C)(C)C (single isomer, unassigned; (-)) [Compound m, (−)-N-[5-(2-Dimethylaminoethanesulfonylaminomethyl)-4-(2,2-dimethyl-propionyl)-5-phenyl-4,5-dihydro-1,3,4-thiadiazol-2-yl]-2,2-dimethylpropanamide]	< 10 µM	< 10 µM	< 0.1 µM	< 10 µM	< 10 µM	< 10 µM	< 10 µM	< 10 µM	101 to 104 °C	< 10 µM	< 10 µM	–	< 10 µM	–

Second part, led by results:

GI50 [1]	GI50 [2]	GI50 [3]	GI50 [4]	GI50 [5]	GI50 [6]	GI50 [7]	GI50 [8]	melting point	GI50 [9]	GI50 [10]	IC50 [11]	GI50 [12]	SMILES	Inhibition of the ATPase activity of Eg5 (in words) [11]
< 10 µM	< 10 µM	< 0.1 µM	< 10 µM	< 10 µM	< 10 µM	< 10 µM	< 10 µM	204 to 206 °C	< 10 µM	< 10 µM	< 0.1 µM	< 10 µM	CC(C)(C)C(=O)NC1=NN(C(=O)C(C)(C)C)C(CCNS(C)(=O)=O)(c2ccccc2)S1 (single isomer, unassigned; (-)) [Compound a, (−)-N-[4-(2,2-Dimethylpropionyl)-5-(2-methanesulfonylaminoethyl)-5-phenyl-4,5-dihydro-1,3,4-thiadiazol-2-yl]-2,2-dimethylpropanamide]	inhibited the ATPase activity of Eg5 in a concentration-dependent manner
< 10 µM	< 10 µM	< 0.1 µM	< 10 µM	< 10 µM	< 10 µM	< 10 µM	< 10 µM	–	< 10 µM	< 10 µM	< 0.1 µM	< 10 µM	CCNCCS(=O)(=O)NCCC1(c2ccccc2)SC(NC(=O)C(C)(C)C)=NN1C(=O)C(C)(C)C (single isomer, unassigned) [Compound i, N-{4-(2,2-Dimethylpropionyl)-5-[2-(2-ethylaminoethanesulfonylamino)ethyl]-5-phenyl-4,5-dihydro-1,3,4-thiadiazol-2-yl}-2,2-dimethylpropanamide]	inhibited the ATPase activity of Eg5 in a concentration-dependent manner
< 10 µM	< 10 µM	< 0.1 µM	< 10 µM	< 10 µM	< 10 µM	< 10 µM	< 10 µM	188 to 191 °C	< 10 µM	< 10 µM	< 0.1 µM	< 10 µM	CCC(=O)N1N=C(N2CCCC2=O)SC1(CCNS(C)(=O)=O)c1ccccc1 (single isomer, unassigned; (-)) [Compound e, (−)-N-{2-[5-(2-Oxopyrrolidin-1-yl)-2-phenyl-3-propionyl-2,3-dihydro-1,3,4-thiadiazol-2-yl]ethyl}methanesulfonamide]	inhibited the ATPase activity of Eg5 in a concentration-dependent manner
